Structures can show the parent of a compound that is named as a salt.
Tests used:
MV-4-11 cells = experiment: Anti proliferative activity in MV-4-11 cells by Cell Titer Glo (Promega) assay; format: cell-based; details: 3 days, CellTiter-Glo
Description: Example-P2: Determination of Anti Proliferative Activity of Compounds in Cell Lines MV-4-11 by Cell Titer Glo® (Promega) Assay
MV-4-11 (CRL-9591™) cells were seeded in 96 well plate flat black clear bottom plates (Corning, Cat. No 3904) using complete DMEM Medium. Next day, selected compounds of the present invention were added to cells from 10 mM stocks made in DMSO (Sigma Cat no. D2650). Each concentration of compound was tested in triplicate with DMSO concentration at a final percentage not exceeding 0.3 in the cells. After the incubation of MV-4-11 cells with compound for 3 days; assay was terminated using 100 μl of CellTiter Glo® reagent (Promega, Cat. no G7572). CellTiter-Glo® Luminescent reagent determines the number of viable cells based on quantitation of ATP present which is an indicator of cell number and metabolic activity. Luminescence readings were taken in Victor-5 instrument. Percent inhibition of proliferation was calculated using formula, % inhibition=100−(luminescence value of test/luminescence value of DMSO control)*100. DMSO control (0%)=Cells in complete media with DMSO; blank=Media alone containing DMSO. EC50 was calculated using graph pad prism software.

SK-MEL-5 cells = experiment: Anti proliferative activity in SK-MEL-5 cells by Cell Titer Glo (Promega) assay; format: cell-based; details: retreatment on Day 4, terminated on day 8, CellTiter-Glo
Description: Example-P1: Determination of Anti Proliferative Activity of Compounds in Cell Lines SK-MEL-5 by Cell Titer Glo® (Promega) Assay
Cells were seeded into 96-well plates and the plate was incubated in 37 degrees incubator overnight. The next day, compounds were diluted 3-fold to cover 9-point concentration range in DMSO. Intermediate plate dilution was prepared in media followed with compound treatment in cells. Retreatment of cells with compound dilutions was performed on Day 4 and assay was terminated on day 8 for SK-MEL-5 cells using CellTiter-Glo and the plate was kept on orbital shaker for 20 minutes at RT. Assay was terminated on day 6 for RERF-LC-A1 without a compound retreatment. Luminescence signal was recorded on VICTOR^3 instrument. Percent inhibition of proliferation was calculated at each concentration and plotted against the compound concentration. EC50 value was calculated using GraphPad® software.

EC50 (MV-4-11 cells; Homo sapiens, MV4-11, 72 h)	EC50 (SK-MEL-5 cells; Homo sapiens)	EC50 (MV-4-11 cells)	EC50 (SK-MEL-5 cells)	SMILES
> 100 nM	> 100 nM	–	–	O=C1CCC(N2C(=O)c3ccc(N4CCN(c5ccc6c(c5)n(C5CCCC5)c5nc(=O)c7c(Br)cccc7n65)CC4)cc3C2=O)C(=O)N1 (centres unmarked) [Compound 5, 5-(4-(4-bromo-7-cyclopentyl-5-oxo-5,7-dihydrobenzo[4,5]imidazo[1,2-a]quinazolin-9-yl)piperazin-1-yl)-2-(2,6-dioxopiperidin-3-yl)isoindoline-1,3-dione]
> 100 nM	> 100 nM	–	–	O=C1CCC(N2Cc3cc(C4CCN(C5CCN(c6ccc7c(c6)n(C6CCCC6)c6nc(=O)c8ccccc8n76)CC5)CC4)ccc3C2=O)C(=O)N1 (centres unmarked) [Compound 10, 3-(5-(1′-(7-cyclopenty1-5-oxo-5,7-dihydrobenzo[4,5]imidazo[1,2-a]quinazolin-9-yl)-[1,4′-bipiperidin]-4-yl)-1-oxoisoindolin-2-yl)piperidine-2,6-dione]
> 100 nM	> 100 nM	–	–	COc1cccc2c1c(=O)nc1n(C3CCCC3)c3cc(N4CCC(N5CCC(c6ccc(NC7CCC(=O)NC7=O)cc6F)CC5)CC4)ccc3n21 (centres unmarked) [Compound 11, 3-((4-(1′-(7-cyclopentyl-4-methoxy-5-oxo-5,7-dihydrobenzo[4,5]imidazo[1,2-a]quinazolin-9-yl)-[1,4′-bipiperidin]-4-yl)-3-fluorophenyl)amino)piperidine-2,6-dione]
> 100 nM	> 100 nM	–	–	O=C1CCC(Nc2ccc(C3CCN(C4CCN(c5ccc6c(c5)n(C5CCCC5)c5nc(=O)c7c(O)cccc7n65)CC4)CC3)c(F)c2)C(=O)N1 (centres unmarked) [Compound 12, 3-((4-(1′-(7-cyclopentyl-4-hydroxy-5-oxo-5,7-dihydrobenzo[4,5]imidazo[1,2-a]quinazolin-9-yl)-[1,4′-bipiperidin]-4-yl)-3-fluorophenyl)amino)piperidine-2,6-dione-HCl salt]
> 100 nM	> 100 nM	–	–	O=C1CCC(c2ccc(C3CCN(C4CCN(c5ccc6c(c5)n(C5CCCC5)c5nc(=O)c7c(C(F)(F)F)cccc7n65)CC4)CC3)cc2)C(=O)N1 (centres unmarked) [Compound 13, 3-(4-(1′-(7-cyclopentyl-5-oxo-4-(trifluoromethyl)-5,7-dihydrobenzo[4,5]imidazo[1,2-a]quinazolin-9-yl)-[1,4′-bipiperidin]-4-yl)phenyl)piperidine-2,6-dione]
> 100 nM	> 100 nM	–	–	O=C1CCC(N2Cc3cc(C4CCN(C5CCN(c6ccc7c(c6)n(C6CCCC6)c6nc(=O)c8cnccc8n76)CC5)CC4)ccc3C2=O)C(=O)N1 (centres unmarked) [Compound 19, 3-(5-(1′-(7-cyclopentyl-5-oxo-5,7-dihydrobenzo[4,5]imidazo[1,2-a]pyrido[3,4-e]pyrimidin-9-yl)-[1,4′-bipiperidin]-4-yl)-1-oxoisoindolin-2-yl)piperidine-2,6-dione]
> 100 nM	> 100 nM	–	–	O=C1CCC(c2ccc(C3CCN(C4CCN(c5ccc6c(c5)n(C5CCCC5)c5nc(=O)c7ncccc7n65)CC4)CC3)cc2)C(=O)N1 (centres unmarked) [Compound 24, 3-(4-(1′-(7-cyclopentyl-5-oxo-5,7-dihydrobenzo[4,5]imidazo[1,2-a]pyrido[2,3-e]pyrimidin-9-yl)-[1,4′-bipiperidin]-4-yl)phenyl)piperidine-2,6-dione]
< 10 nM	< 10 nM	–	–	Cn1c2cc(N3CCC(N4CCC(c5ccc6c(c5)CN(C5CCC(=O)NC5=O)C6=O)CC4)CC3)ccc2n2c3cccc(Cl)c3c(=O)nc12 (centres unmarked) [Compound 27, 3-(5-(1′-(4-chloro-7-methyl-5-oxo-5,7-dihydrobenzo[4,5]imidazo[1,2-a]quinazolin-9-yl)-[1,4′-bipiperidin]-4-yl)-1-oxoisoindolin-2-yl)piperidine-2,6-dione]
< 10 nM	< 10 nM	–	–	CC(C)n1c2cc(N3CCC(N4CCC(c5ccc6c(c5)CN(C5CCC(=O)NC5=O)C6=O)CC4)CC3)ccc2n2c3cccc(Cl)c3c(=O)nc12 (centres unmarked) [Compound 28, 3-(5-(1′-(4-chloro-7-isopropyl-5-oxo-5,7-dihydrobenzo[4,5]imidazo[1,2-a]quinazolin-9-yl)-[1,4′-bipiperidin]-4-yl)-1-oxoisoindolin-2-yl)piperidine-2,6-dione-HCl salt]
> 100 nM	> 100 nM	–	–	Nc1cccc2c1c(=O)nc1[nH]c3cc(N4CCC(N5CCC(c6ccc(C7CCC(=O)NC7=O)cc6)CC5)CC4)ccc3n12 (centres unmarked) [Compound 31, 3-(4-(1′-(4-amino-5-oxo-5,7-dihydrobenzo[4,5]imidazo[1,2-a]quinazolin-9-yl)-[1,4′-bipiperidin]-4-yl)phenyl)piperidine-2,6-dione-TFA salt]
> 100 nM	> 100 nM	–	–	Cc1cccc2c1c(=O)nc1n(C3CCCC3)c3cc(N4CCC(N5CCC(c6ccc(NC7CCC(=O)NC7=O)cc6F)CC5)CC4)ccc3n21 (centres unmarked) [Compound 33, 3-((4-(1′-(7-cyclopentyl-4-methyl-5-oxo-5,7-dihydrobenzo[4,5]imidazo[1,2-a]quinazolin-9-yl)-[1,4′-bipiperidin]-4-yl)-3-fluorophenyl)amino)piperidine-2,6-dione]
> 100 nM	> 100 nM	–	–	O=C1CCC(Nc2ccc(C3CCN(C4CCN(c5ccc6c(c5)[nH]c5nc(=O)c7c(Br)cccc7n56)CC4)CC3)c(F)c2)C(=O)N1 (centres unmarked) [Compound 34, 3-((4-(1′-(4-bromo-5-oxo-5,7-dihydrobenzo[4,5]imidazo[1,2-a]quinazolin-9-yl)-[1,4′-bipiperidin]-4-yl)-3-fluorophenyl)amino)piperidine-2,6-dione]
> 100 nM	> 100 nM	–	–	Nc1cccc2c1c(=O)nc1n(C3CC3)c3cc(N4CCC(N5CCN(c6ccc(NC7CCC(=O)NC7=O)cc6F)CC5)CC4)ccc3n21 (centres unmarked) [Compound 37, 3-((4-(4-(1-(4-amino-7-cyclopropyl-5-oxo-5,7-dihydrobenzo[4,5]imidazo[1,2-a]quinazolin-9-yl)piperidin-4-yl)piperazin-1-yl)-3-fluorophenyl)amino)piperidine-2,6-dione]
–	–	< 10 nM	< 10 nM	O=C1CCC(Nc2ccc(C3CCN(C4CCN(c5ccc6c(c5)n(C5CCCC5)c5nc(=O)c7c(Cl)cccc7n65)CC4)CC3)c(F)c2)C(=O)N1 (centres unmarked) [Compound 38, 3-((4-(1′-(4-chloro-7-cyclopentyl-5-oxo-5,7-dihydrobenzo[4,5]imidazo[1,2-a]quinazolin-9-yl)-[1,4′-bipiperidin]-4-yl)-3-fluorophenyl)amino)piperidine-2,6-dione]
> 100 nM	> 100 nM	–	–	O=C1CCC(NC(=O)c2ccc(C3CCN(C4CCN(c5ccc6c(c5)n(C5CCCC5)c5nc(=O)c7c(Cl)cccc7n65)CC4)CC3)cc2F)C(=O)N1 (centres unmarked) [Compound 39, 4-(1′-(4-chloro-7-cyclopentyl-5-oxo-5,7-dihydrobenzo[4,5]imidazo[1,2-a]quinazolin-9-yl)-[1,4′-bipiperidin]-4-yl)-N-(2,6-dioxopiperidin-3-yl)-2-fluorobenzamide]
> 100 nM	> 100 nM	–	–	Cn1nc(N2CCC(=O)NC2=O)c2cc(F)c(N3CCN(C4CCN(c5ccc6c(c5)n(C)c5nc(=O)c7c(N)cccc7n65)CC4)CC3)cc21 [Compound 41, 1-(6-(4-(1-(4-amino-7-methyl-5-oxo-5,7-dihydrobenzo[4,5]imidazo[1,2-a]quinazolin-9-yl)piperidin-4-yl)piperazin-1-yl)-5-fluoro-1-methyl-1H-indazol-3-yl)dihydropyrimidine-2,4(1H,3H)-dione]
> 100 nM	> 100 nM	–	–	Cn1c2cc(N3CCC(N4CCN(c5ccc6c(c5)CN(C5CCC(=O)NC5=O)C6=O)CC4)CC3)ccc2n2c3cccc(N)c3c(=O)nc12 (centres unmarked) [Compound 42, 3-(5-(4-(1-(4-amino-7-methyl-5-oxo-5,7-dihydrobenzo[4,5]imidazo[1,2-a]quinazolin-9-yl)piperidin-4-yl)piperazin-1-yl)-1-oxoisoindolin-2-yl)piperidine-2,6-dione]
> 100 nM	> 100 nM	–	–	Cn1c2cc(N3CCN(CC4CCN(c5ccc6c(c5)CN(C5CCC(=O)NC5=O)C6=O)CC4)CC3)ccc2n2c3cccc(N)c3c(=O)nc12 (centres unmarked) [Compound 43, 3-(5-(4-((4-(4-amino-7-methyl-5-oxo-5,7-dihydrobenzo[4,5]imidazo[1,2-a]quinazolin-9-yl)piperazin-1-yl)methyl)piperidin-1-yl)-1-oxoisoindolin-2-yl)piperidine-2,6-dione]
> 100 nM	< 10 nM	–	–	Cn1c2cc(N3CCC(N4CCN(c5ccc(NC6CCC(=O)NC6=O)cc5F)CC4)CC3)ccc2n2c3cccc(Cl)c3c(=O)nc12 (centres unmarked) [Compound 46, 3-((4-(4-(1-(4-chloro-7-methyl-5-oxo-5,7-dihydrobenzo[4,5]imidazo[1,2-a]quinazolin-9-yl)piperidin-4-yl)piperazin-1-yl)-3-fluorophenyl)amino)piperidine-2,6-dione]

From US20260297094A1, “Tetracyclic Compounds as SMARCA2 and/or SMARCA4 Degraders” (Aurigene Oncology Limited, priority 2023, published 2026)
